Measurements: ChEMBL document CHEMBL1641539 (Bioorg Med Chem Lett, 2011)

Assays:
[1] = molecular target: Tyrosine-protein kinase ITK/TSK (Homo sapiens) (UniProt Q08881); experiment: Inhibition of human Itk at 10 uM after 60 mins by TR-FRET assay; conditions: values are per cent of control
[2] = molecular target: Tyrosine-protein kinase JAK2 (Homo sapiens) (UniProt O60674); experiment: Inhibition of human JAK2 at 10 uM after 60 mins by TR-FRET assay; conditions: values are per cent of control
[3] = molecular target: Tyrosine-protein kinase JAK3 (Homo sapiens) (UniProt P52333); experiment: Inhibition of human JAK3 at 10 uM after 60 mins by TR-FRET assay; conditions: values are per cent of control
[4] = molecular target: Tyrosine-protein kinase Lck (Homo sapiens) (UniProt P06239); experiment: Inhibition of human Lck at 10 uM after 60 mins by TR-FRET assay; conditions: values are per cent of control
[5] = molecular target: Tyrosine-protein kinase Lyn (Homo sapiens) (UniProt P07948); experiment: Inhibition of human Lyn at 10 uM after 60 mins by TR-FRET assay; conditions: values are per cent of control
[6] = molecular target: Serine/threonine-protein kinase 4 (Homo sapiens) (UniProt Q13043); experiment: Inhibition of human MST1 at 10 uM after 60 mins by TR-FRET assay; conditions: values are per cent of control
[7] = molecular target: Mitogen-activated protein kinase 13 (Homo sapiens) (UniProt O15264); experiment: Inhibition of human SAPK4 at 10 uM after 60 mins by TR-FRET assay; conditions: values are per cent of control
Mitogen-activated protein kinase 13 (Homo sapiens), sequence (O15264 whole entry): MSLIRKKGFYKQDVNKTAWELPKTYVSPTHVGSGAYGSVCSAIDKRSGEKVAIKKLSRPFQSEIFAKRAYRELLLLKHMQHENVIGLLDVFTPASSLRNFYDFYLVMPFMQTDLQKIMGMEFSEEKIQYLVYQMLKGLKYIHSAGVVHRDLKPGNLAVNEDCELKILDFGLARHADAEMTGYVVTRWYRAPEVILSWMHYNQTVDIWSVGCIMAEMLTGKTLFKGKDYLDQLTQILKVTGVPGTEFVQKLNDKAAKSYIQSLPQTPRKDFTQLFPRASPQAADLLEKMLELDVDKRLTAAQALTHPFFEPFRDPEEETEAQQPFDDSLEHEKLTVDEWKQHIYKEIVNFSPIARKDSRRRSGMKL

[8] = molecular target: MAP kinase-activated protein kinase 5 (Homo sapiens) (UniProt Q8IW41); experiment: Residual activity of human PRAK at 10 uM after 60 mins by TR-FRET assay
[9] = molecular target: Insulin receptor-related protein (Homo sapiens) (UniProt P14616); experiment: Inhibition of human IRR at 10 uM after 60 mins by TR-FRET assay; values are per cent of control
[10] = molecular target: Serine/threonine-protein kinase Sgk1 (Homo sapiens) (UniProt O00141); experiment: Inhibition of human SGK at 10 uM after 60 mins by TR-FRET assay; values are per cent of control
[11] = molecular target: Vascular endothelial growth factor receptor 3 (Homo sapiens) (UniProt P35916); experiment: Inhibition of human Flt4 at 10 uM after 60 mins by TR-FRET assay; values are per cent of control
[12] = molecular target: G protein-coupled receptor kinase 5 (Homo sapiens) (UniProt P34947); experiment: Inhibition of human GRK5 at 10 uM after 60 mins by TR-FRET assay; values are per cent of control
[13] = molecular target: G protein-coupled receptor kinase 6 (Homo sapiens) (UniProt P43250); experiment: Inhibition of human GRK6 at 10 uM after 60 mins by TR-FRET assay; values are per cent of control
[14] = molecular target: Serine/threonine-protein kinase STK11 (Homo sapiens) (UniProt Q15831); experiment: Inhibition of human LKB1 at 10 uM after 60 mins by TR-FRET assay; values are per cent of control
Serine/threonine-protein kinase STK11 (Homo sapiens), sequence (Q15831 whole entry): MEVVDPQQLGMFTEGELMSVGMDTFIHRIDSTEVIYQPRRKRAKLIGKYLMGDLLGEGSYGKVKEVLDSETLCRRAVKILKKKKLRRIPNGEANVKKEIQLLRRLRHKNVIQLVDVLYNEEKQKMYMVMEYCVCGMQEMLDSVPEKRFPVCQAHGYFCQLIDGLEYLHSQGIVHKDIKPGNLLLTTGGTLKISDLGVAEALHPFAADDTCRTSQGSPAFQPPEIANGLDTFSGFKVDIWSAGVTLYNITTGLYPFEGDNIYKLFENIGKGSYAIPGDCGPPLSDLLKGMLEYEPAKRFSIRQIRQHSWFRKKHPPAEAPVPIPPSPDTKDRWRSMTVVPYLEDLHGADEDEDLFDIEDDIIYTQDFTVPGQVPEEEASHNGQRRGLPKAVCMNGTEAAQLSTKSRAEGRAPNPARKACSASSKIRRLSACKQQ

[15] = molecular target: Misshapen-like kinase 1 (Homo sapiens) (UniProt Q8N4C8); experiment: Inhibition of human MINK at 10 uM after 60 mins by TR-FRET assay; values are per cent of control
[16] = molecular target: Mitogen-activated protein kinase kinase kinase 9 (Homo sapiens) (UniProt P80192); experiment: Inhibition of human MLK1 at 10 uM after 60 mins by TR-FRET assay; values are per cent of control
[17] = molecular target: Serine/threonine-protein kinase Nek6 (Homo sapiens) (UniProt Q9HC98); experiment: Inhibition of human NEK6 at 10 uM after 60 mins by TR-FRET assay; values are per cent of control
[18] = molecular target: Serine/threonine-protein kinase Nek7 (Homo sapiens) (UniProt Q8TDX7); experiment: Inhibition of human NEK7 at 10 uM after 60 mins by TR-FRET assay; values are per cent of control
[19] = molecular target: Mitogen-activated protein kinase kinase kinase 7 (Homo sapiens) (UniProt O43318); experiment: Inhibition of human TAK1 at 10 uM after 60 mins by TR-FRET assay; values are per cent of control
[20] = molecular target: Tyrosine-protein kinase FRK (Homo sapiens) (UniProt P42685); experiment: Inhibition of human PTK5 at 10 uM after 60 mins by TR-FRET assay; values are per cent of control
Tyrosine-protein kinase FRK (Homo sapiens), sequence (P42685 whole entry): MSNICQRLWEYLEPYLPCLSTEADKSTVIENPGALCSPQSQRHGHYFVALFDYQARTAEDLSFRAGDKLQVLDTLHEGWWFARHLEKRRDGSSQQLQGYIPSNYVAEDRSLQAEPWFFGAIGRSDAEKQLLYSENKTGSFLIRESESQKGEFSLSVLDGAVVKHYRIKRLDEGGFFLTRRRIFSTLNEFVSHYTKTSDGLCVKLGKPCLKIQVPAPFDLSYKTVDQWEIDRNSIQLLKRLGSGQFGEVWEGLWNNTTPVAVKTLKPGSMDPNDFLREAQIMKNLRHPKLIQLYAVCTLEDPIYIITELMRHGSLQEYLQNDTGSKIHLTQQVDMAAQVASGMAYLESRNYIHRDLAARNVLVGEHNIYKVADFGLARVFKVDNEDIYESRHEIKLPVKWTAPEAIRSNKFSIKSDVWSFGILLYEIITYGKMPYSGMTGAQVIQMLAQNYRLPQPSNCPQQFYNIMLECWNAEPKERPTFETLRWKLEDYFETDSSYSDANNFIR

[21] = molecular target: Fibroblast growth factor receptor 2 (Homo sapiens) (UniProt P21802); experiment: Inhibition of human FGFR2 at 10 uM after 60 mins by TR-FRET assay; values are per cent of control
[22] = molecular target: Serine/threonine-protein kinase 17B (Homo sapiens) (UniProt O94768); experiment: Inhibition of human DYRK2 at 10 uM after 60 mins by TR-FRET assay; values are per cent of control
[23] = molecular target: Serine/threonine-protein kinase MARK1 (Homo sapiens) (UniProt Q9P0L2); experiment: Inhibition of human MARK1 at 10 uM after 60 mins by TR-FRET assay; values are per cent of control
[24] = molecular target: Serine/threonine-protein kinase 33 (Homo sapiens) (UniProt Q9BYT3); experiment: Inhibition of human STK33 at 10 uM after 60 mins by TR-FRET assay; values are per cent of control
[25] = molecular target: Testis-specific serine/threonine-protein kinase 2 (Homo sapiens) (UniProt Q96PF2); experiment: Inhibition of human TSSK2 at 10 uM after 60 mins by TR-FRET assay; values are per cent of control
[26] = molecular target: Rho-associated protein kinase 1 (Homo sapiens) (UniProt Q13464); experiment: Inhibition of human ROCK-1 at 10 uM after 60 mins by TR-FRET assay; values are per cent of control
Rho-associated protein kinase 1 (Homo sapiens), sequence (Q13464 2-1354 limits assumed): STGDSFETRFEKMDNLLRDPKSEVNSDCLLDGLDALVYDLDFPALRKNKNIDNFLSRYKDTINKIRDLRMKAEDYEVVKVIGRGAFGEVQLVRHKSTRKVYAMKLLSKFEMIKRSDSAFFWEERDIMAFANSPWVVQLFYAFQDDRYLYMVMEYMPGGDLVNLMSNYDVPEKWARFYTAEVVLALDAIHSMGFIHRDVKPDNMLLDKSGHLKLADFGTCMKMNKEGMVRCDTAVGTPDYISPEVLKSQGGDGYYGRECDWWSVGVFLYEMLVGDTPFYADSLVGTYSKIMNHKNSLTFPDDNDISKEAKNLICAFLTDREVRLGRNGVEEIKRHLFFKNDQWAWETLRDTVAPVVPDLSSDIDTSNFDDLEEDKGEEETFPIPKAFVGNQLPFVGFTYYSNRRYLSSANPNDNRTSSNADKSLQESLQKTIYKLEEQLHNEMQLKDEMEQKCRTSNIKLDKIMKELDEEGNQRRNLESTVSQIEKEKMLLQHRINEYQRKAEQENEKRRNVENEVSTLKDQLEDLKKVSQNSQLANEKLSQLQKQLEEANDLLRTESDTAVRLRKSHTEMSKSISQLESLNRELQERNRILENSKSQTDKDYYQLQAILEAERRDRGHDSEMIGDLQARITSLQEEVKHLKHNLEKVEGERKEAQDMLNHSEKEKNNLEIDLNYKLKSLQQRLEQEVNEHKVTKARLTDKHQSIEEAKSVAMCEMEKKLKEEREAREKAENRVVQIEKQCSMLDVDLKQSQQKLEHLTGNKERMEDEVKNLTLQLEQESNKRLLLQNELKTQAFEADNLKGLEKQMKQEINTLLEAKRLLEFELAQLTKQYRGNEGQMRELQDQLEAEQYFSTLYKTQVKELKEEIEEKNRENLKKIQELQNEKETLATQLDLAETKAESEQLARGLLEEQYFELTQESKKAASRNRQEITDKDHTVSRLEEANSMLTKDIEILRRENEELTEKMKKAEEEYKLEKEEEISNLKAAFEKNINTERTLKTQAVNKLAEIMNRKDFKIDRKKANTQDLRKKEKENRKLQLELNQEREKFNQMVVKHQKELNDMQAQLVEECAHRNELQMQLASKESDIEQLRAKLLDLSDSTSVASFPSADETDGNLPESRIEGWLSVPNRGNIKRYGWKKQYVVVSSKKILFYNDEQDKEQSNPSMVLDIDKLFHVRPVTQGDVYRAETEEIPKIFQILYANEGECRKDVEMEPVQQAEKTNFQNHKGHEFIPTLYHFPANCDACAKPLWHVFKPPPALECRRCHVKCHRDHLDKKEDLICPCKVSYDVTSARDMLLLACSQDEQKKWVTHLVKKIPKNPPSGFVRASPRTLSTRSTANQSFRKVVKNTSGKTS

[27] = molecular target: RAC-beta serine/threonine-protein kinase (Homo sapiens) (UniProt P31751); experiment: Inhibition of human PKBbeta at 10 uM after 60 mins by TR-FRET assay; values are per cent of control
RAC-beta serine/threonine-protein kinase (Homo sapiens), sequence (P31751 whole entry): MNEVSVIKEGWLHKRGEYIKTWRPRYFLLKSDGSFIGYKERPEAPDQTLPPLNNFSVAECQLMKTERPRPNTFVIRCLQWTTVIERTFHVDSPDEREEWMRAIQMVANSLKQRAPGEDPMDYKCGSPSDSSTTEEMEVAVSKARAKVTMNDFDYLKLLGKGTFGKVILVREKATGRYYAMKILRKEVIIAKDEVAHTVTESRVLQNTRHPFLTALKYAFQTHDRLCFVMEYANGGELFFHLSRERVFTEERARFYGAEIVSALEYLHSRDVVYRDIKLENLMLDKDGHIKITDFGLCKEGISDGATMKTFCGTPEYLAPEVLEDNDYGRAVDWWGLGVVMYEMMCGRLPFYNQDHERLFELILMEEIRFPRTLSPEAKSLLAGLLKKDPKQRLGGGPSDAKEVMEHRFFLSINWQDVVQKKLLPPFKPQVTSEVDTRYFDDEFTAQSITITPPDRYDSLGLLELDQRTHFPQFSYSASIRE

[28] = molecular target: Protein kinase C beta type (Homo sapiens) (UniProt P05771); experiment: Inhibition of human PKCbeta1 at 10 uM after 60 mins by TR-FRET assay; values are per cent of control
[29] = molecular target: MAP kinase-activated protein kinase 3 (Homo sapiens) (UniProt Q16644); experiment: Inhibition of human MAPKAP-K3 at 10 uM after 60 mins by TR-FRET assay; values are per cent of control

Tyrosine-protein kinase ITK/TSK (Homo sapiens), sequence (Q08881 whole entry): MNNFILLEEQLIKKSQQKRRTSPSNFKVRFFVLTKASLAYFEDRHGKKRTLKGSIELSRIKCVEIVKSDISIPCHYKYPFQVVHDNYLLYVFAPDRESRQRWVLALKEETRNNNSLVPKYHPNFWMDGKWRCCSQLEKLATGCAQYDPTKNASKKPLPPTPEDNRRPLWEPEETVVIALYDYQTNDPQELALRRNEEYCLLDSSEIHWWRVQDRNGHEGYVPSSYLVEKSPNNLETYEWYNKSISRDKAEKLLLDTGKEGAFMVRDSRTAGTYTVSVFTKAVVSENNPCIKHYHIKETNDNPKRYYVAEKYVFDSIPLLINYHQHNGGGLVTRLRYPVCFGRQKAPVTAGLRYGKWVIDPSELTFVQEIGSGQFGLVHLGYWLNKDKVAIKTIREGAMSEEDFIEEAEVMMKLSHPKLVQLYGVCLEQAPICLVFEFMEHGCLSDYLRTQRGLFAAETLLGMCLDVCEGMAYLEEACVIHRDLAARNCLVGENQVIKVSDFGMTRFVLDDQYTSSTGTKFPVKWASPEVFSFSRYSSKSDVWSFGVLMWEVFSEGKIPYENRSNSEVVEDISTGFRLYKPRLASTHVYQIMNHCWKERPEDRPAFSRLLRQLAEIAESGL
Tyrosine-protein kinase JAK2 (Homo sapiens), sequence (O60674 whole entry): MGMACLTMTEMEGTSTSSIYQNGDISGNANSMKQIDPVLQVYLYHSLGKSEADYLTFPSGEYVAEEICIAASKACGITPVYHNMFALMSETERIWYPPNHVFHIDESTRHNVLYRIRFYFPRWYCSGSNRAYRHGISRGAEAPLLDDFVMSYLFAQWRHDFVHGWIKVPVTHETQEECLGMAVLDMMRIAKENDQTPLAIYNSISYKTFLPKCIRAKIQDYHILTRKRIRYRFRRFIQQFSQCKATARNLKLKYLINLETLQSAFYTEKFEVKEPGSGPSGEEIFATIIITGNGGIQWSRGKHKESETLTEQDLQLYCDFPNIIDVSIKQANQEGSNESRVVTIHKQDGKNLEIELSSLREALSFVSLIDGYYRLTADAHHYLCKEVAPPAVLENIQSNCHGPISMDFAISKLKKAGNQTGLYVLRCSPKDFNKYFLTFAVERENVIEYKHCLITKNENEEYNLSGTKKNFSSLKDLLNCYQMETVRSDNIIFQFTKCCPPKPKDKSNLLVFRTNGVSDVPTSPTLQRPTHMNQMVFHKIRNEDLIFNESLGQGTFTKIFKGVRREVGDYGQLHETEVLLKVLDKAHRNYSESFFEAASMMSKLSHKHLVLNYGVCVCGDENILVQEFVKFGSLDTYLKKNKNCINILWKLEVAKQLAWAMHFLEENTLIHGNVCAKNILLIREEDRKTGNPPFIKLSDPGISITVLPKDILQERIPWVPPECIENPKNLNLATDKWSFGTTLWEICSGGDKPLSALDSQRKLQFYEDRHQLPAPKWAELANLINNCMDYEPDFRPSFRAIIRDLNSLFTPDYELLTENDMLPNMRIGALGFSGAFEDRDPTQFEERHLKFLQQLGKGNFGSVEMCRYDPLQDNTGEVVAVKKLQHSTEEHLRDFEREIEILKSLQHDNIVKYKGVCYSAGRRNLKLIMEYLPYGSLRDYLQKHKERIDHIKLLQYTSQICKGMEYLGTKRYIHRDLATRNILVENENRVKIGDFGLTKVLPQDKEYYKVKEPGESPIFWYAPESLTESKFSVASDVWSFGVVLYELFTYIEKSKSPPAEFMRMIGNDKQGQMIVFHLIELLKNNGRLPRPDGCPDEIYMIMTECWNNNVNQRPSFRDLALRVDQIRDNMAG

SMILES: S=c1[nH]nc(-c2ccncc2)n1-c1ccc2ccccc2c1
- residual activity [1]: 103%
- residual activity [2]: 110%
- residual activity [3]: 147%
- residual activity [4]: 76%
- residual activity [5]: 102%
- residual activity [6]: 112%
- residual activity [7]: 111%
- residual activity [8]: 119%
- residual activity [9]: 111%
- residual activity [10]: 109%
- residual activity [11]: 95%
- residual activity [12]: 115%
- residual activity [13]: 108%
- residual activity [14]: 123%
- residual activity [15]: 80%
- residual activity [16]: 109%
- residual activity [17]: 116%
- residual activity [18]: 112%
- residual activity [19]: 89%
- residual activity [20]: 98%
- residual activity [21]: 92%
- residual activity [22]: 104%
- residual activity [23]: 113%
- residual activity [24]: 107%
- residual activity [25]: 107%
- residual activity [26]: 110%
- residual activity [27]: 110%
- residual activity [28]: 109%
- residual activity [29]: 112%
